The text below walks through data of patent US7655810B2, “Phosphine transition metal complex, method for producing the same, and antitumor agent containing the same” (Nippon Chemical Industrial Co., Ltd., priority 2005, dated 2010).

Data set [1] relates to HL-60 (human acute myelocytic leukemia cells). The experiment in a line: Evaluation of antitumor activity, MTT viable cell count (modified Mosmann method). The following applies: read-out: IC50 (50% inhibitory concentration from viable cell count), HL-60 cells, 24 hours culture, average of at least three measured values. The class given is cell-based. Here is the method:
Cisplatin was also evaluated as a comparative example by the same method.
HL-60 (human acute myelocytic leukemia cells) was used as cancer cells. The cells were cultured in Rosewell Park Memorial Institute medium (RPMI 1640) supplemented with 10% fetal bovine serum, 1% antibiotic, and an antifungal agent in an atmosphere of 5% carbon dioxide in a moist incubator at 37° C.
The cells were washed with PBS. After the cell count was determined, a suspension (1×10^5 cells/mL) was prepared with the same medium. The suspension was seeded at a density of […] in a sterile 96-well microplate.
The prepared solutions were respectively added to the wells and cultured in the incubator for 24 hours.
The viable cell count was determined by a modified Mosmann method (T. Mosmann, J. Immunol. Method (1983) 65, 55-63). More specifically, a solution of a tetrazolium salt (3,[4,5-dimethylthiazole-2-yl]-2,5-diphenyltetrazolium bromide, MTT) was added to the wells. The wells were cultured for another 3 hours under the same conditions. Formazan crystals formed by the enzyme activity of mitochondria in the cells were dissolved in 0.04 mol/L HCl isopropyl alcohol solution, and the absorbance of each well was measured at 595 nm with a microplate reader (Bio-Rad 550). The background noises were canceled by subtracting the absorbance at 630 nm from the absorbance at 595 nm to obtain a viable cell count. […] For the calculation for IC50, at least three measured values obtained under the same conditions were averaged.

Data set [2] concerns female Sprauge-Dawley SPF rats. The experiment in a line: Toxicity test by single oral administration to rats. The class given is in vivo, rat. Here is the method: After female Sprauge-Dawley SPF rats (CrJ: CD (SD)) were quarantined and acclimated for about a week, healthy 8-week-old rats were selected in groups of five rats. The rats was fasted overnight before administration, and single oral doses of 20, 50, 100, and 300 mg/kg of the phosphine gold complex, and 10, 20, 50, and 100 mg/kg of cisplatin dissolved in corn oil were administrated the respective rats. The rats were observed 10 and 30 minutes and 1, 2, and 4 hours after administration, and further observed daily until the 14th day.

Regarding “Bis((+)-1,2-bis((2R,5R)-2,5-dimethylphosphorano)ethane)gold (I) Chloride [Example 1]”, in data set [1], the IC50 was 2750 nM.
With “Bis(1,2-bis((2S,5S)-2,5-(dimethylphosphorano)benzene))gold (I) Chloride [Example 3]”, the IC50 in data set [1] was determined as 3550 nM.
“Bis(1,2-bis((2R,5R)-2,5-(dimethylphosphorano)benzene))gold (I) Chloride [Example 4]”: in data set [1], the IC50 amounted to 542 nM. Besides, in data set [2] (single oral administration, over the period of the test (14 days)), the “Change in general conditions, body weight and internal organs” value is “no specific change in general conditions, body weight, and internal organs was observed”. In addition, the Survival of rats result in data set [2] (single oral doses of 20, 50, 100 and 300 mg/kg, until the 14th day) is listed as “did not die even at the 14th day”.
Consider “Bis((−)-1,2-bis((2S,5S)-2,5-dimethylphosphorano)ethane)gold (I) Chloride [Example 2]”, for which, in data set [1], the IC50 was determined as 1660 nM.
